In publication PMC8583417, “Evaluation of the Antimicrobial Efficacy of N-Acetyl-L-Cysteine, Rhamnolipids, and Usnic Acid—Novel Approaches to Fight Food-Borne Pathogens” (International Journal of Molecular Sciences, 2021):

Assays:
S. aureus 816 = assay: MIC for biofilm metabolic activity (MTT reduction assay); assay type: cell-based, Staphylococcus aureus; details: ≥80% inhibition, 24 h
Procedure: (§1) Ten concentrations of NAC, RLs, and UA were tested to determine the minimum inhibitory concentration for planktonic growth, and subsequently, the six highest concentrations were applied on preformed biofilms to evaluate the biofilm eradication ability of the compounds. MIC was defined as the lowest substance concentration able to inhibit at least 80% of microbial growth (MICPC80 for planktonic cells, MICBC80 for further growth of biofilm cells), inhibit 80% of metabolic activity (MICBM80 for biofilm metabolic activity, MICMPB80 for metabolic activity of preformed biofilm), prevent biofilm formation by at least 80% (MICBF80 for biofilm formation), or reduce a preformed biofilm by at least 80% (MICBR80 for biofilm reduction). The results of MICs are summarized in Table 1 (planktonic cells) and Table 2 (biofilm-associated cells).
The determination of MICs was performed according to Chlumsky et al.. Briefly, 96-well flat-bottomed microtiter plates were inoculated with 75 µL (for biofilm formation) or 100 µL (for preformed biofilm) of bacterial suspension (A625nm 0.08 to 0.1) in technical triplicates and were then carefully mixed with the dilution series of the test substances (24 h cultivation at 25 °C for S. Infantis, 37 °C for other strains) or were directly cultivated to preform biofilms (18 h). For a positive control of bacterial growth, the inoculum was mixed with a pure sterile medium. […] To evaluate planktonic cells growth (MICPC80) and further growth of biofilm cells (MICBC80), the optical density of the content of the microtiter plates was measured spectrophotometrically at 625 nm before and after 24 h (for biofilm formation) of cultivation or before and after additional 20 h incubation with the tested compound (for preformed biofilm). […] To evaluate the inhibition of biofilm formation (MICBF80) and reduction in preformed biofilms (MICBR80), biomass was quantified using crystal violet staining, and its metabolic activity (MICBM80 and MICMPB80) was estimated by using the MTT (thiazyl tetrazolium bromide, Sigma-Aldrich, USA) reduction assay, both measured spectrophotometrically at 595 nm.
(§2) All inhibitions were calculated using the formula of Chlumsky et al. below (Equation (1)):(1) A625(595)nm inhibition (%)=A625(595)nm (control) – A625(595)nm(natural substance)/A625(595)nm (control)× 100 where A625(595)nm (control) is the absorbance of bacterial suspension/biofilm itself, and A625(595)nm(natural substance) is the absorbance of the bacterial suspension/biofilm with the added natural substance (NAC, RLs, and UA).
(§3) When the minimum inhibitory concentration could not be determined, the MIC was established as >the highest tested concentration for NAC, RLs, and UA.

L. monocytogenes 164 = assay: MIC for reduction of preformed biofilm (crystal violet staining); assay type: cell-based, Listeria monocytogenes; details: for MICBR80: ≥80% reduction of preformed biofilm (18 h), 20 h with substance
Procedure: as §1
(§4) The determination of MICs was performed according to Chlumsky et al.. Briefly, 96-well flat-bottomed microtiter plates were inoculated with 75 µL (for biofilm formation) or 100 µL (for preformed biofilm) of bacterial suspension (A625nm 0.08 to 0.1) in technical triplicates and were then carefully mixed with the dilution series of the test substances (24 h cultivation at 25 °C for S. Infantis, 37 °C for other strains) or were directly cultivated to preform biofilms (18 h). For a positive control of bacterial growth, the inoculum was mixed with a pure sterile medium. Furthermore, the sterile medium was included in the plate as a marker of potential microbial contamination. To evaluate planktonic cells growth (MICPC80) and further growth of biofilm cells (MICBC80), the optical density of the content of the microtiter plates was measured spectrophotometrically at 625 nm before and after 24 h (for biofilm formation) of cultivation or before and after additional 20 h incubation with the tested compound (for preformed biofilm). The difference of A625nm was considered as a measure of the ability of cells to grow in the presence of the tested substances. To evaluate the inhibition of biofilm formation (MICBF80) and reduction in preformed biofilms (MICBR80), biomass was quantified using crystal violet staining, and its metabolic activity (MICBM80 and MICMPB80) was estimated by using the MTT (thiazyl tetrazolium bromide, Sigma-Aldrich, USA) reduction assay, both measured spectrophotometrically at 595 nm.
as §2, §3

L. monocytogenes 149 = assay: as above; assay type: cell-based, Listeria monocytogenes; details: for MICBR80: ≥80% reduction of preformed biofilm (18 h), 20 h with substance
Procedure: as §1, §4, §2, §3

E. coli 693/17 [1] = assay: MIC for biofilm formation (crystal violet staining); assay type: cell-based, Escherichia coli; details: for MICBF80: ≥80% prevention, 24 h
Procedure: as §1, §4, §2, §3

E. coli 683/17 [2] = assay: as above; assay type: cell-based, Escherichia coli; details: for MICBF80: ≥80% prevention, 24 h
Procedure: as §1, §4, §2, §3

E. coli 693/17 [3] = assay: CLSM analysis, biofilm removal (preformed biofilm); assay type: cell-based, Escherichia coli; details: for Thickness (µm) subCBM80: substance at subinhibitory concentration
Procedure: (§5) Biofilm prevention and removal analyses were performed using previously determined minimum inhibitory and subinhibitory concentrations for metabolic activity (MICBM80, subCBM80; MICMPB80, subCMPB80) of NAC, RLs, and UA specific for each tested strain. Selected concentrations were used to evaluate the inhibition of biofilm formation (biofilm prevention) and the reduction in previously formed biofilms (biofilm removal) for the same set of microorganisms, with the exception of S. Infantis, which was excluded from the analysis due to its inability to form biofilm in the selected microtiter plate. Biofilm prevention and removal were observed using CLSM with specific staining to distinguish between live and membrane-compromised cells. Images were analyzed to evaluate (i). the total volume of the biomass, (ii). ratios of live and membrane-compromised cells, and (iii). to calculate biofilm volume reduction for individual organisms after the respective treatment types. The total biofilm volume was normalized by the area of the well and expressed as an average biofilm thickness. Complete data are provided in Supplementary Materials (Tables S1–S8).
(§6) At first, bacterial suspensions were cultivated in microtiter plates to produce overnight biofilms (18 h). […] cells were then washed out, and the remaining biofilms were further cultivated for an additional 20 h with selected compounds. Following biofilm cultivation, biomass was observed using CLSM with live/membrane-compromised cell staining. Biomass images from biofilm removal treatments were similar to results from biofilm prevention, where biomass was highly diversified across the bacterial species and strains. Visually, biomass images were fairly consistent within the quadruplicates for each tested organism. Non-treated biofilms of S. aureus contained consistent biomass spread across the well (S. aureus 816) or grown around the edges (S. aureus 1241). […] PI staining identified membrane-compromised cells spread across S. aureus 816 biomass and incorporated in the edge of biomass and/or in the central part of the well (Figure 4B,C). […] Membrane-compromised cells appeared contained around the edges (S. aureus 1241), disturbed across the well (in both strains of L. monocytogenes), or in separated biomass in the central part of the well (in both strains of E. coli when treated with the subinhibitory concentration of RLs) (Figure 4D,E).
(§7) For both inhibition and reduction of biofilms, overnight cultures from BHI were diluted in TSB + 1% Glc to reach an absorbance of 0.08 to 0.1 at 625 nm. The inoculum (150 µL) was transferred into wells of the 96-well flat-bottomed Ibidiμ-Plate (Ibidi, Gräfelfing, Germany) and mixed with 150 µL of each of the three tested substances in technical quadruplicates, followed by incubation at 37 °C for 24 h. Simultaneously, the prepared bacterial suspensions were inoculated to an additional microtiter plate (200 µL) and allowed to form biofilm overnight (18 h at 37 °C). After the incubation, the content of the well was drained off, and 200 µL of each of the three tested substances was added to the plate, which was then incubated for an additional 20 h. The used concentrations of the substances represented the subinhibitory and minimum inhibitory concentrations for metabolic activity (subCBM80, MICBM80; subCMPB80, MICMPB80). Both setups contained a positive control of the bacterial growth (inoculum mixed with sterile TSB + 1% Glc medium) and a control monitoring microbial contamination (sterile medium). Non-treated wells were used as a positive control for comparison between non-treated and treated biofilm mass.
(§8) Prior to the imaging, the wells were stained with the LIVE/DEAD® BacLight™ Bacterial Viability Kit (Thermo Fisher Scientific, MA, USA) following the manufacturer’s guidelines and Drago et al.. […]

E. coli 683/17 [4] = assay: CLSM analysis, biofilm removal (preformed biofilm); assay type: cell-based, Escherichia coli; details: for Thickness (µm) subCBM80: substance at subinhibitory concentration
Procedure: as §5, §6, §7, §8

[5] = preformed biofilm, within tested concentrations
[6] = 20 h, subinhibitory concentration
[7] = preformed biofilm, 20 h exposure, mean ± SD
[8] = preformed biofilm, 20 h exposure, substance at its MIC, mean ± SD

Row | SMILES | MICBM80 (S. aureus 816) | MICBR80 (L. monocytogenes 164) | maximal achieved inhibition (MICBR80 not reached), biofilm reduction (L. monocytogenes 149; [5]) | MICBR80 (L. monocytogenes 149) | maximal achieved inhibition (MICBF80 not reached) (E. coli 693/17 [1]; within tested concentrations) | MICBF80 (E. coli 693/17 [1]) | maximal achieved inhibition (MICBF80 not reached) (E. coli 683/17 [2]; within tested concentrations) | MICBF80 (E. coli 683/17 [2]) | proportion of membrane-compromised cells (E. coli 693/17 [3]; [6]) | Thickness (µm) subCBM80 (E. coli 693/17 [3]; [7]) | proportion of membrane-compromised cells (E. coli 683/17 [4]; [6]) | Thickness (µm) subCBM80 (E. coli 683/17 [4]; [7]) | maximal achieved inhibition (MICBR80 not reached), biofilm reduction (L. monocytogenes 164; [5]) | Thickness (µm) MICBM80 (E. coli 693/17 [3]; [8]) | Thickness (µm) MICBM80 (E. coli 683/17 [4]; [8])
1 | CC(=O)c1c(O)c(C)c(O)c2c1OC1=CC(=O)C(C(C)=O)C(=O)C12C (single isomer, unassigned; (+)) [UA, (+)-usnic acid] | 0.24 µg/mL | 1.96 µg/mL | 69% | > 31.3 µg/mL | 47% | > 31.3 µg/mL | 10% | > 31.3 µg/mL | up to 40% | 254 ± 81.8 µm | up to 40% | 285 ± 38.5 µm |  |  | 
2 | CC(=O)N[C@@H](CS)C(=O)O [NAC, N-Acetyl-L-cysteine] | 3130 µg/mL | > 100,000 µg/mL |  | 100,000 µg/mL |  | 6250 µg/mL |  | 6250 µg/mL |  | 181 ± 33.7 µm |  | 128 ± 31.6 µm | 46% | 222 ± 68.8 µm | 153 ± 33.3 µm
